{"source": "patent US20090234150A1", "about": "“Use of ppar-alpha agonists to treat skeletal muscle wasting disorders” (priority 2006, published 2009)", "system": "ischemic muscle necrosis", "details": "wild type mice, 0.5 g/kg/day by gavage for 10 days prior to femoral artery ligation", "excerpt": "To assess the muscle protective effect of the PPAR-alpha agonist fenofibrate, wild type mice received fenofibrate (0.5 g/kg/day; Cayman Chemical, Ann Arbor, Mich., USA) by gavage, or vehicle alone for 10 days prior to femoral artery ligation. Two days after femoral artery ligation muscle necrosis was subsequently analyzed on histological sections of the crural muscles.\nLimb ischemia was induced by high unilateral right or bilateral ligation of the femoral artery and vein, and of the cutaneous vessels branching from the caudal femoral artery, sparing the femoral nerve. Crural muscles were dissected and processed for histological analysis 2 d or 7 d after ligation.\nThe crural muscles were dissected, fixed in 4% PFA, dehydrated, embedded in paraffin, and sectioned at 10 μm thickness. Microscopic analysis was performed with a Zeiss Axioplan 2 imaging microscope, equipped with an Axiocam HrC camera and KS300 morphometry software (Zeiss). Capillary density, fiber size, and the cross-sectional area of viable and necrotic zones were quantified on eight entire sections (each 320 μm apart) of the crural muscles."}
{"compound": "CC(C)OC(=O)C(C)(C)Oc1ccc(C(=O)c2ccc(Cl)cc2)cc1", "note": "[fenofibrate]", "values": [{"measurement": "prevention of ischemic muscle necrosis", "setting": "analysed two days after ligation, versus vehicle", "result": 60, "unit": "%"}, {"measurement": "% necrotic area/total cross-sectional area", "setting": "crural muscles two days after ligation, n=4, P=0.002 (vehicle 86.3±8.2%)", "result": "34.3±7", "unit": "%"}]}
